Test results reported in PMC4971745, “Evaluation of a Set of C9 N-acyl Neu5Ac2en Mimetics as Viral Sialidase Selective Inhibitors” (International Journal of Medicinal Chemistry, 2010).

Legend:
human sialidase NEU1 = settings: previously reported; ref [39]; read-out: Human sialidase inhibition (IC50) NEU1; cited from earlier work
[1] = target: T1, sialidase of influenza A virus A/Memphis/1/71 (H3N2) (Influenza A virus, UniProt P03475); assay: biochemical
T1 construct: preincubated with 5 μL of the virus containing 2 enzyme units; host or cells: whole virus preparation
T1 sequence (P03475 whole entry): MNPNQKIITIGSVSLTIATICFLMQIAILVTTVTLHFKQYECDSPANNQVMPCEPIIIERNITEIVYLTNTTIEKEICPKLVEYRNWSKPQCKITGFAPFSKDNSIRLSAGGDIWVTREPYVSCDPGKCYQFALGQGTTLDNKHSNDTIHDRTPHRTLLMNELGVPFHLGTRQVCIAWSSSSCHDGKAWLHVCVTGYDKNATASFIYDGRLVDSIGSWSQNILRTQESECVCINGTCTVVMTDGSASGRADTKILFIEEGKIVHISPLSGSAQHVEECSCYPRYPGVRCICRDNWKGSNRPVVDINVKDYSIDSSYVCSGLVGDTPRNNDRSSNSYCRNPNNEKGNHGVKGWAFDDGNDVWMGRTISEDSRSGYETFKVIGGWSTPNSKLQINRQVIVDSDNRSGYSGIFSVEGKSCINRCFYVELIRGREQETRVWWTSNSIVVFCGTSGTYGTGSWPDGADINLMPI

human sialidase NEU4 = settings: previously reported; ref [39]; read-out: Human sialidase inhibition (IC50) NEU4; cited from earlier work
[2] = tested on: sialidase of influenza A virus A/Duck/313/78 (H5N3); format: biochemical; settings: pH 6; read-out: Viral sialidase inhibition (IC50) H5N3
[3] = target: T2, sialidase of influenza A virus A/PR/8/34 (H1N1) (Influenza A virus, UniProt P03468); assay: biochemical
T2 construct: preincubated with 5 μL of the virus containing 2 enzyme units; host or cells: whole virus preparation
T2 sequence (P03468 whole entry): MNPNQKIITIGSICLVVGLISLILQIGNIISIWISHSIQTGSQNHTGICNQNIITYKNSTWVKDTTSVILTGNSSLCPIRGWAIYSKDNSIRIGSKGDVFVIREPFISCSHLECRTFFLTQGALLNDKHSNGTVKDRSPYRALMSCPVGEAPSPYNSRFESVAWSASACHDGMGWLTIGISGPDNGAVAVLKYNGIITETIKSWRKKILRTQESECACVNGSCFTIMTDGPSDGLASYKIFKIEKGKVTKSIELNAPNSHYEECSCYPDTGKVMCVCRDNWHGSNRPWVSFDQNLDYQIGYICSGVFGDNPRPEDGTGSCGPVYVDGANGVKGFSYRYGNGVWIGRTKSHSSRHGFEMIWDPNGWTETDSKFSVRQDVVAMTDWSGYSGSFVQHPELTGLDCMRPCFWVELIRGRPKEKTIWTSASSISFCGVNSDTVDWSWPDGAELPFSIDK

human sialidase NEU3 = settings: previously reported; ref [39]; read-out: Human sialidase inhibition (IC50) NEU3; cited from earlier work
human sialidase NEU2 = settings: previously reported; ref [39]; read-out: Human sialidase inhibition (IC50) NEU2; cited from earlier work

SMILES | IC50 (human sialidase NEU1) [µM] | IC50 [1] [µM] | IC50 (human sialidase NEU4) [µM] | IC50 [2] [µM] | IC50 [3] [µM] | IC50 (human sialidase NEU3) [µM] | IC50 (human sialidase NEU2) [µM]
CC(=O)NC[C@@H](O)[C@@H](O)[C@H]1OC(C(=O)O)=C[C@@H](O)[C@@H]1NC(C)=O [Compound 5] | 58 | 34 | 580 | 97 | 22 | > 1000 | > 1000
CC(=O)N[C@@H]1[C@@H]([C@H](O)[C@H](O)CNC(=O)c2ccccc2)OC(C(=O)O)=C[C@H]1O [Compound 6] | – | > 1000 | – | > 1000 | > 1000 | – | –
CC(=O)N[C@@H]1[C@@H]([C@H](O)[C@H](O)CNC(=O)C2CCCC2)OC(C(=O)O)=C[C@H]1O [Compound 7] | – | > 1000 | – | > 1000 | 850 | – | –
CC(=O)N[C@@H]1[C@@H]([C@H](O)[C@H](O)CNC(=O)C2CC2)OC(C(=O)O)=C[C@H]1O [Compound 8] | 680 | 16 | 825 | 98 | 9 | > 1000 | > 1000
CCCC(=O)NC[C@@H](O)[C@@H](O)[C@H]1OC(C(=O)O)=C[C@@H](O)[C@@H]1NC(C)=O [Compound 9] | – | 559 | – | – | 97 | – | –
CCC(C)C(=O)NC[C@@H](O)[C@@H](O)[C@@H]1OC(C(=O)O)=C[C@H](O)[C@H]1NC(C)=O (some centres unmarked) [Compound 10] | – | > 1000 | – | > 1000 | 59 | – | –
CC(=O)N[C@@H]1[C@@H]([C@H](O)[C@H](O)CNC(=O)C(C)C)OC(C(=O)O)=C[C@H]1O [Compound 11] | – | 680 | – | > 1000 | 54 | – | –
CCCCC(=O)NC[C@@H](O)[C@@H](O)[C@H]1OC(C(=O)O)=C[C@@H](O)[C@@H]1NC(C)=O [Compound 12] | – | 159 | – | > 1000 | 34 | – | –
CC(=O)N[C@@H]1[C@@H]([C@H](O)[C@H](O)CNC(=O)C(C)(C)C)OC(C(=O)O)=C[C@H]1O [Compound 13] | – | 770 | – | > 1000 | 78 | – | –
CCC(CC)C(=O)NC[C@@H](O)[C@@H](O)[C@@H]1OC(C(=O)O)=C[C@H](O)[C@H]1NC(C)=O [Compound 14] | – | > 1000 | – | > 1000 | 698 | – | –
CC(=O)N[C@H]1[C@H]([C@H](O)[C@H](O)CO)OC(C(=O)O)=C[C@@H]1O [DANA, 5-acetamido-2,6-anhydro-3,5-dideoxy-D-glycero-D-galacto-non-2-enonic acid, reference compound] | – | 9 | 74 | 11 | – | 61 | –
